The source of these data is patent US9625458B2, “Biosensor” (priority 2002, dated 2017).

In assay [1] the target is T1, E. coli dipeptide binding protein (DPP), fluorophore-conjugated cysteine mutants (Escherichia coli, UniProt P23847).
T1 construct: several single-Cys mutants (e.g. K394C) with fluorophore
The experiment in a line: Ligand affinity of dipeptide BP fluorescent conjugates (Kd range). To be noted: range over conjugates, n=21. The source says:
(§1) Molecular Cloning. […] Amplified products were cloned into one of the protein expression vectors pAED4 (Doering, “Functional and structural studies of a small f-actin binding domain” in Ph.D. thesis, Massachusetts Institute of Technology, 1992); pKK223-3 (Brosius & Holy, Proc. Natl. Acad. Sci. USA 81:6929-6933, 1984); or pET vectors (Studier et al., Meth. Enzymol. 185:60-89, 1990) (Novagen). N-terminal oligonucleotide primers were designed to clone only the processed periplasmic form, deleting the signal sequence. The C-terminal primer was designed to append the sequence Gly-Ser-Gly-(His)n or Gly-Ser-(His)n, where n=5, 6, or 10. Two tandem stop codons (TAATGA) follow the last His codon. […] Additionally the sequence of Fe(III) BP was mutated by substitution of Glu57 with Asp to raise the Kd to a concentration range conveniently measured using Fe(III) citrate.
(§2) Fluorophore conjugation to cysteine-substituted bPBPs. […] The efficiency of reporter group attachment was assessed by determination of unreacted thiol with Ellman's reagent (Ellman, Arch. Biochem. Biophys. 74:443-450, 1958) or by measuring the ratio of fluorophore to protein from absorbance spectra of the purified conjugate.
(§3) Fluorimetry. […] Fluorescence emission spectra were acquired with excitation and emission slit widths of 4 and 8 nm, respectively. […]

In assay [2] the target is T2, E. coli dipeptide binding protein variant T44C, fluorophore conjugate (Escherichia coli, UniProt P23847, T72C).
T2 construct: initiation methionine (N); Gly-Ser-Gly-(His)n or Gly-Ser-(His)n (C); made in house; host or cells: E. coli BL21-DE3
T2 sequence (P23847 29-535 T72C): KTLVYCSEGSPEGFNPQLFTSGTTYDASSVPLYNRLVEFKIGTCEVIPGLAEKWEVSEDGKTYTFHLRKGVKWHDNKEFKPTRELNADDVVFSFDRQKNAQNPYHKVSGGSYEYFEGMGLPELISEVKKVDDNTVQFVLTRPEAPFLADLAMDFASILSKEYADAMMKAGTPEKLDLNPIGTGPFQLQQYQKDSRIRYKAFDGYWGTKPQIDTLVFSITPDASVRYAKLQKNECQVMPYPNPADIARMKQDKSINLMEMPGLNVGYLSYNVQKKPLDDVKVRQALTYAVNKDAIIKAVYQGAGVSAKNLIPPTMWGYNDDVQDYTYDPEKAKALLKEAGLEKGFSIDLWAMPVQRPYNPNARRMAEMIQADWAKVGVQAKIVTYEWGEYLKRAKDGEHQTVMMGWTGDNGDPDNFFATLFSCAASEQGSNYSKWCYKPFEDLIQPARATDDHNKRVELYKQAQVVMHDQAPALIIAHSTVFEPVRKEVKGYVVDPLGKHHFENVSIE
The experiment in a line: Fluorimetric titration of fluorophore conjugates. The conditions noted are these: peristeric site. An excerpt:
(§4) Molecular Cloning. […] Amplified products were cloned into one of the protein expression vectors pAED4 (Doering, “Functional and structural studies of a small f-actin binding domain” in Ph.D. thesis, Massachusetts Institute of Technology, 1992); pKK223-3 (Brosius & Holy, Proc. Natl. Acad. Sci. USA 81:6929-6933, 1984); or pET vectors (Studier et al., Meth. Enzymol. 185:60-89, 1990) (Novagen). N-terminal oligonucleotide primers were designed to clone only the processed periplasmic form, deleting the signal sequence. The C-terminal primer was designed to append the sequence Gly-Ser-Gly-(His)n or Gly-Ser-(His)n, where n=5, 6, or 10. Two tandem stop codons (TAATGA) follow the last His codon. […] Single amino acid substitutions were generated by overlapping PCR mutagenesis (Ho et al., Gene 77:51-59, 1989). All clones and mutations were confirmed by nucleotide sequencing. In the case of arabinose BP, the single cysteine in the wild type sequence was replaced by alanine to eliminate the possibility of reporter group conjugation to this thiol (Miller et al., J. Biol. Chem. 254:7521-7528, 1979). Additionally the sequence of Fe(III) BP was mutated by substitution of Glu57 with Asp to raise the Kd to a concentration range conveniently measured using Fe(III) citrate.
(§5) Fluorophore conjugation to cysteine-substituted bPBPs. Thiol-reactive fluorophores obtained from Molecular Probes (Eugene, Oreg.) were 5-iodoacetamidofluorescein (fluorescein); N-(1-pyrene) iodoacetamide (pyrene); N,N′-dimethyl-N-(iodoacetyl)-N′-(7-nitrobenz-2-oxa-1,3-diazol-4-yl)ethylenediamide (NBD); N-((2-(iodoacetoxy)ethyl)-N-methyl)amino-7-nitrobenz-2-oxa-1,3-diazole (NBDE); and 6-acryloyl-2-dimethylaminonaphthalene (acrylodan). The styryl and naphthyl dyes JPW4039, JPW4042, and JPW4045 (FIG. 3) were synthesized at the University of Connecticut. All fluorophore conjugation steps were typically carried out at room temperature. To protein at a concentration of 100 μM was added tris-(2-carboxyethyl)phosphine HCl to a five-fold molar excess to reduce intermolecular disulfide bonds. A thiol-reactive fluorophore (20 to 25 mM in acetonitrile or dimethyl sulfoxide) was added in small aliquots to a five-fold molar excess over protein. Conjugation proceeded in the dark at room temperature for 4 hours, or overnight at 4° C. Separation of protein from unreacted fluorophore was achieved by exhaustive dialysis or by size-exclusion chromatography. The efficiency of reporter group attachment was assessed by determination of unreacted thiol with Ellman's reagent (Ellman, Arch. Biochem. Biophys. 74:443-450, 1958) or by measuring the ratio of fluorophore to protein from absorbance spectra of the purified conjugate.
(§6) Fluorimetry. All measurements were conducted with an SLM Aminco-Bowman series 2 fluorimeter, with sample stirring at 25° C. Fluorescence emission spectra were acquired with excitation and emission slit widths of 4 and 8 nm, respectively. Photomultiplier tube potential was maintained between 400 and 800 volts. Protein concentrations were in the range of 50 to 1000 nM. Fluorophore-specific excitation was at the following approximate wavelengths: tryptophan, 290 nm; acrylodan, 390 nm; fluorescein, 485 nm; pyrene, 340 nm; NBD and NBDE, 490 nm; JPW4039, 485 nm; JPW4042, 470 nm; JPW4045, 470 nm.
(§7) Corrections were made for dilution of the protein and for background signal from buffer. Binding curves were fit to binding isotherms using equation 3 or 4, as appropriate.
(§8) Analyte affinity measurements. […] The emission wavelength monitored was that of maximum difference in intensity between the ligand-free and bound states. For each conjugate, fluorescence intensiometric observations were fit to a hyperbolic binding isotherm for a two-state model (Marvin et al., Proc. Natl. Acad. Sci. USA 94:4366-4371, 1997): […]

The target of assay [3] is T3, E. coli dipeptide binding protein variant R141C, fluorophore conjugate (Escherichia coli, UniProt P23847, R169C).
T3 construct: initiator methionine (N); Gly-Ser-Gly-(His)n or Gly-Ser-(His)n (n = 5, 6 or 10) (C); made in house; host or cells: E. coli BL21-DE3
T3 sequence (P23847 29-535 R169C): as the sequence (P23847 29-535 T72C) above, with C44T, R141C counted along it
The experiment in a line: Fluorimetric titration of fluorophore conjugates. The conditions noted are these: peristeric site.
Source text: as §4, §5, §6, §7, §8

Assay [4] concerns the target T4, E. coli dipeptide binding protein variant S111C, fluorophore conjugate (Escherichia coli, UniProt P23847, S139C).
T4 construct: initiator methionine (N); Gly-Ser-Gly-(His)n or Gly-Ser-(His)n (n = 5, 6 or 10) (C); made in house; host or cells: E. coli BL21-DE3
The experiment in a line: Fluorimetric titration of fluorophore conjugates. The conditions noted are these: peristeric site.
Source text: as §4, §5, §6, §7, §8

For assay [5], the target named is T5, E. coli dipeptide binding protein variant D450C, fluorophore conjugate (Escherichia coli, UniProt P23847, D478C).
T5 construct: initiator methionine (N); Gly-Ser-Gly-(His)n or Gly-Ser-(His)n (n = 5, 6 or 10) (C); made in house; host or cells: E. coli BL21-DE3
T5 sequence (P23847 29-535 D478C): as the sequence (P23847 29-535 T72C) above, with C44T, D450C counted along it
The experiment in a line: Fluorimetric titration of fluorophore conjugates. The conditions noted are these: peristeric site.
Source text: as §4, §5, §6, §7, §8

The target in assay [6] is T6, E. coli dipeptide binding protein variant W315C, fluorophore conjugate (Escherichia coli, UniProt P23847, W343C).
T6 construct: initiation methionine (N); Gly-Ser-Gly-(His)n or Gly-Ser-(His)n (C); made in house; host or cells: E. coli BL21-DE3
T6 sequence (P23847 29-535 W343C): as the sequence (P23847 29-535 T72C) above, with C44T, W315C counted along it
The assay is described as follows: Fluorimetric titration of fluorophore conjugates. The conditions noted are these: peristeric site.
Source text: as §4, §5, §6, §7, §8

Assay [7] concerns the target T7, E. coli dipeptide binding protein variant K394C, fluorophore conjugate (Escherichia coli, UniProt P23847, K422C).
T7 construct: initiator methionine (N); Gly-Ser-Gly-(His)n or Gly-Ser-(His)n (n = 5, 6 or 10) (C); made in house; host or cells: E. coli BL21-DE3
The assay is described as follows: Fluorimetric titration of fluorophore conjugates.
Source text: as §4, §5, §6, §7, §8

Assay [8] addresses T8, E. coli ribose binding protein (RBP), fluorophore-conjugated cysteine mutants (Escherichia coli, UniProt P02925).
T8 construct: single-Cys mutants (e.g. T135C, E192C) with fluorophores
The assay is described as follows: Ligand affinity of ribose BP fluorescent conjugates (Kd range). To be noted: range over conjugates, n=14.
Source text: as §1, §2, §3

For assay [9], the target named is T9, E. coli ribose binding protein variant L236C, fluorophore conjugate (Escherichia coli, UniProt P02925, L261C).
T9 construct: Gly-Ser-Gly-(His)n or Gly-Ser-(His)n, n=5, 6 or 10 (C); initiator methionine (N); made in house; host or cells: E. coli strain BL21-DE3
T9 sequence (P02925 26-296 L261C): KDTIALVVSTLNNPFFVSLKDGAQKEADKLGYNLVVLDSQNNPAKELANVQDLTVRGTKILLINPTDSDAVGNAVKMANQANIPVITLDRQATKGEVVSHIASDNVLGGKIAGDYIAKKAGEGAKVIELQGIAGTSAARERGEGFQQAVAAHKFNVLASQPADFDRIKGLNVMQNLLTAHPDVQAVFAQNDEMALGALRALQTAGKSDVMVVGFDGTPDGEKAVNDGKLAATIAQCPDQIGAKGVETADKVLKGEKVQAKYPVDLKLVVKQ
The experiment in a line: Fluorimetric titration of fluorophore conjugates. To be noted: ligand ribose.
Source text: as §4, §5, §6, §7, §8

Assay [10] addresses T10, E. coli ribose binding protein variant E192C, fluorophore conjugate (Escherichia coli, UniProt P02925, E217C).
T10 construct: Gly-Ser-Gly-(His)n or Gly-Ser-(His)n, n=5, 6 or 10 (C); initiator methionine (N); made in house; host or cells: E. coli strain BL21-DE3
The experiment in a line: Fluorimetric titration of fluorophore conjugates.
Source text: as §4, §5, §6, §7, §8

The target of assay [11] is T11, E. coli ribose binding protein variant L265C, fluorophore conjugate (Escherichia coli, UniProt P02925, L290C).
T11 construct: Gly-Ser-Gly-(His)n or Gly-Ser-(His)n, n=5, 6 or 10 (C); initiator methionine (N); made in house; host or cells: E. coli strain BL21-DE3
T11 sequence (P02925 26-296 L290C): as the sequence (P02925 26-296 L261C) above, with C236L, L265C counted along it
The assay is described as follows: Fluorimetric titration of fluorophore conjugates.
Source text: as §4, §5, §6, §7, §8

Assay [12] has as its target T12, E. coli ribose binding protein variant A234C, fluorophore conjugate (Escherichia coli, UniProt P02925, A259C).
T12 construct: Gly-Ser-Gly-(His)n or Gly-Ser-(His)n, n=5, 6 or 10 (C); initiator methionine (N); made in house; host or cells: E. coli strain BL21-DE3
The assay is described as follows: Fluorimetric titration of fluorophore conjugates. To be noted: ligand ribose.
Source text: as §4, §5, §6, §7, §8

Molecules are shown by their SMILES.

T10 sequence (P02925 26-296 E217C): as the sequence (P02925 26-296 L261C) above, with E192C, C236L counted along it
T12 sequence (P02925 26-296 A259C): as the sequence (P02925 26-296 L261C) above, with A234C, C236L counted along it
T4 sequence (P23847 29-535 S139C): as the sequence (P23847 29-535 T72C) above, with C44T, S111C counted along it
T7 sequence (P23847 29-535 K422C): as the sequence (P23847 29-535 T72C) above, with C44T, K394C counted along it
T8 sequence (P02925 26-296, stated change not applied): as the sequence (P02925 26-296 L261C) above, with C236L counted along it
T1 sequence (P23847 29-535, stated change not applied): as the sequence (P23847 29-535 T72C) above, with C44T counted along it

As to `CC(C)C[C@H](NC(=O)CN)C(=O)O` [Gly-Leu, Gly-Leu dipeptide], the “range of Kd” value in [1] was in the range of 6 to 93000 nM. Further, the Kd (commonly the equilibrium constant for the complex coming apart) in assay [2] (Fluorescein conjugate) was found to be 640 nM; in assay [2] (NBD conjugate) it was 6 nM; in assay [3] (Acrylodan conjugate) it was 2300 nM; in [3] (Fluorescein conjugate), 38000 nM; in [4] (Acrylodan conjugate) it was 4800 nM; in assay [4] (Fluorescein conjugate), 2600 nM. For the same compound, the Kd in assay [4] (JPW4039 conjugate) is 34000 nM; in [4] (JPW4042 conjugate) it was 15800 nM; in [5] (Acrylodan conjugate), 11000 nM; in assay [5] (JPW4039 conjugate), 910 nM; in assay [5] (JPW4042 conjugate) it was 1500 nM; in [5] (JPW4045 conjugate), 2000 nM. Besides, the Kd in assay [6] (Acrylodan conjugate) came to 130 nM; in assay [6] (JPW4039 conjugate), 1000 nM; in assay [6] (JPW4045 conjugate), 3200 nM; in [6] (NBD conjugate) it was 60 nM; in assay [7] (Kd, Acrylodan conjugate, peristeric site), 23000 nM; in [7] (Kd, Fluorescein conjugate, peristeric site), 93000 nM. Also, the Kd turned out to be 30000 nM in assay [7] (Kd, JPW4039 conjugate, peristeric site); 78000 nM in assay [7] (Kd, JPW4042 conjugate, peristeric site); 12 nM in assay [7] (Kd, NBD conjugate, peristeric site); 6 nM in assay [7] (affinity for Gly-Leu dipeptide (Kd), K394C-NBD conjugate); 93000 nM in assay [7] (affinity for Gly-Leu dipeptide (Kd), K394C-fluorescein conjugate).

Regarding `OC1OC[C@@H](O)[C@@H](O)[C@H]1O` (stereo partly shown) [ribose], the “range of Kd” value in assay [8] fell in the range of 100 to 2.09e+06 nM. The dissociation constant (Kd) is 620 nM in [9] (JPW4042 conjugate); 1530 nM in assay [9] (JPW4045 conjugate); 100 nM in assay [9] (NBD conjugate); 11400 nM in assay [10] (Kd, Fluorescein conjugate, E192C, ligand ribose); 2570 nM in [10] (Kd, JPW4039 conjugate, E192C, ligand ribose); 5030 nM in assay [10] (Kd, JPW4042 conjugate, E192C, ligand ribose). Moreover, the Kd in assay [10] (Kd, JPW4045 conjugate, E192C, ligand ribose) came to 15000 nM; in assay [10] (Kd, NBD conjugate, E192C, ligand ribose), 2600 nM; in [10] (affinity for ribose (Kd), E192C-JPW4039 conjugate), 2600 nM; in [10] (affinity for ribose (Kd), E192C-JPW4045 conjugate), 15000 nM; in [10] (affinity for ribose (Kd), E192C-NBD conjugate) it was 2600 nM; in assay [11] it was 260 nM. Further, the results for the Kd in assay [12] (JPW4039 conjugate), in assay [12] (JPW4045 conjugate) and in [12] (NBD conjugate) were 1840 nM, 3760 nM and 735 nM, respectively.
